Experimental data from ChEMBL document CHEMBL3992500, “Design, facile synthesis and biological evaluations of novel pyrano[3,2-a]phenazine hybrid molecules as antitumor agents” (Eur J Med Chem, 2017).
The source made the active and inactive calls. No cut-off for these calls is given here.

Legend:
HCT-116 = test: Antiproliferative activity against human HCT116 cells after 48 hrs by MTT assay; type: functional, cell-based; details: HCT-116, 48 h
MCF7 = test: Antiproliferative activity against human MCF7 cells after 48 hrs by MTT assay; type: functional, cell-based; details: MCF7, 48 h
A549 = test: Antiproliferative activity against human A549 cells after 48 hrs by MTT assay; type: functional, cell-based; details: A549, 48 h
HepG2 = test: Antiproliferative activity against human HepG2 cells after 48 hrs by MTT assay; type: functional, cell-based; details: HepG2, 48 h
[1] = molecular target: T1, DNA topoisomerase 1 (Homo sapiens) (UniProt P11387); test: Inhibition of DNA topoisomerase-1 (unknown origin) assessed as reduction in enzyme-catalyzed relaxation of pBR322 DNA substrate at 20 uM after 30 mins by ethidium bromide staining based electrophoresis
T1 sequence (whole entry): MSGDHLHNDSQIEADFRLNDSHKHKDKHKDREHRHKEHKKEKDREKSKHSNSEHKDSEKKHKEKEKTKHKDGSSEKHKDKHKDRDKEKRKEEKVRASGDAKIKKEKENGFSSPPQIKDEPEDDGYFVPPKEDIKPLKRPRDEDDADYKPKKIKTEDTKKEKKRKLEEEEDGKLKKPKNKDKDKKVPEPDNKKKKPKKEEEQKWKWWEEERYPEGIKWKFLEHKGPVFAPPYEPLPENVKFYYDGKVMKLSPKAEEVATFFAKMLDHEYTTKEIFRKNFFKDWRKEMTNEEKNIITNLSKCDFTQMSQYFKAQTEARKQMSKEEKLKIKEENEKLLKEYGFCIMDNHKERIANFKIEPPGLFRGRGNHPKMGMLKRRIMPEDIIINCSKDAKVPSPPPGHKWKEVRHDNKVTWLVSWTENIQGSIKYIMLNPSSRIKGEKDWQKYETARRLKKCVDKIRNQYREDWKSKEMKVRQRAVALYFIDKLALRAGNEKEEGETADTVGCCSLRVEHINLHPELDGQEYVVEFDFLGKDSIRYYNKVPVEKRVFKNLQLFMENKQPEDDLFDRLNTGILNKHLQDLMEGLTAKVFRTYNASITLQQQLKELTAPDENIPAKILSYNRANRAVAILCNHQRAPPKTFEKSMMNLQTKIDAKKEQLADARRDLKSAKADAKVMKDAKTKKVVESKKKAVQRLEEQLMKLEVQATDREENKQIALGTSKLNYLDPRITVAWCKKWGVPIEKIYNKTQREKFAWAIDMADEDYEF

| SMILES | IC50 (HCT-116) [µM] | IC50 (MCF7) [µM] | IC50 (A549) [µM] | IC50 (HepG2) [µM] | inhibition [1] |
| --- | --- | --- | --- | --- | --- |
| COc1cc(C2C(C#N)=C(N)Oc3c(N)cc4nc5ccccc5nc4c32)cc(OC)c1Br (stereo not drawn) | 18.2 | > 50 | 24.2 | 12.4 | – |
| CC[C@@]1(O)C(=O)OCc2c1cc1n(c2=O)Cc2cc3cc(O)ccc3nc2-1 [HYDROXYCAMPTOTHECIN] | 3.5 | 2.4 | 0.8 | 10.1 | Active |
| COc1ccc(Br)cc1C1C(C#N)=C(N)Oc2c(N)cc3nc4ccccc4nc3c21 (stereo not drawn) | 30.1 | > 50 | 14.1 | 11.7 | – |
| CCOC(=O)C1=C(N)Oc2c(N)cc3nc4ccccc4nc3c2C1c1ccc(OC)c(F)c1 (stereo not drawn) | 20.5 | > 50 | 24.8 | 8.5 | – |
| CCOC(=O)C1=C(N)Oc2c(N)cc3nc4ccccc4nc3c2C1c1cccc(Br)c1 (stereo not drawn) | 10.8 | > 50 | 13.4 | > 50 | – |
| CCc1ccc(C2C(C#N)=C(N)Oc3c(N)cc4nc5ccccc5nc4c32)cc1 (stereo not drawn) | 5.5 | 19.1 | 23.4 | 15.5 | – |
| CCOC(=O)C1=C(N)Oc2c(N)cc3nc4ccccc4nc3c2C1c1cccc([N+](=O)[O-])c1 (stereo not drawn) | > 50 | 20.2 | > 50 | 7.3 | – |
| N#CC1=C(N)Oc2c(N)cc3nc4ccccc4nc3c2C1c1ccc([N+](=O)[O-])cc1 (stereo not drawn) | 14.5 | > 50 | 15.9 | 18.1 | – |
